Data taken from PubChem BioAssay AID248 (DTP/NCI, 2004).
Inconclusive results and toxic doses are left out. Rule as the data show it: active = T/C of 150% or more; inactive = T/C below 125%.

Tested on: L1210 leukemia ip in BDF1 mice, survival T/C
Experiment: NCI In Vivo Anticancer Drug Screen. Data for tumor model L1210 Leukemia (intraperitoneal) in B6D2F1 (BDF1) mice
Conditions: endpoint: mean survival time, higher = longer survival
In short: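 Transplantable tumor model; survival measured in treated vs vehicle control mice. Value = treated/control.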

[1] = dose: 100.0 mg/kg/injection, schedule: Q01DX001 (ip), vehicle: saline with Tween-80
[2] = dose: 25.0 mg/kg/injection, schedule: Q04DX003 (ip), vehicle: saline
[3] = dose: 100.0 mg/kg/injection, schedule: Q01DX001 (ip), vehicle: carboxymethylcellulose (CMC)
[4] = dose: 200.0 mg/kg/injection, schedule: Q01DX001 (ip), vehicle: carboxymethylcellulose (CMC)
[5] = dose: 400.0 mg/kg/injection, schedule: Q01DX001 (ip), vehicle: carboxymethylcellulose (CMC)
[6] = dose: 50.0 mg/kg/injection, schedule: Q04DX003 (ip), vehicle: saline
[7] = dose: 100.0 mg/kg/injection, schedule: Q04DX003 (ip), vehicle: saline
[8] = dose: 200.0 mg/kg/injection, schedule: Q04DX003 (ip), vehicle: saline
[9] = dose: 100.0 mg/kg/injection, schedule: Q01DX001 (ip), vehicle: saline
[10] = dose: 200.0 mg/kg/injection, schedule: Q01DX001 (ip), vehicle: saline

Measured: T/C

Cc1ccc(C(O)(c2ccccc2)C2C(c3ccccc3)N2C2CCCCC2)cc1 (stereo not drawn)
inactive: dose: 100.0 mg/kg/injection, schedule: Q04DX003 (ip), vehicle: saline sonified 92 % of control | dose: 200.0 mg/kg/injection, schedule: Q04DX003 (ip), vehicle: saline sonified 87 % of control | dose: 400.0 mg/kg/injection, schedule: Q04DX003 (ip), vehicle: saline sonified 89 % of control

CCCn1ccc(N)nc1=O
inactive: dose: 75.0 mg/kg/injection, schedule: Q01DX001 (ip), vehicle: Klucel (hydroxypropylcellulose) (HPC) 116 % of control | dose: 150.0 mg/kg/injection, schedule: Q01DX001 (ip), vehicle: Klucel (hydroxypropylcellulose) (HPC) 119 % of control | dose: 300.0 mg/kg/injection, schedule: Q01DX001 (ip), vehicle: Klucel (hydroxypropylcellulose) (HPC) 111 % of control

CC1CCC2(C(=O)O)CCC3(C)C(=CCC4C5(C)CC(O)C(O)C(C)(C(=O)O)C5CCC43C)C2C1(C)O (stereo not drawn)
inactive: dose: 100.0 mg/kg/injection, schedule: Q01DX001 (ip), vehicle: alkali diluted with saline 94 % of control | [1] 97 % of control | dose: 200.0 mg/kg/injection, schedule: Q01DX001 (ip), vehicle: alkali diluted with saline 100 % of control | dose: 200.0 mg/kg/injection, schedule: Q01DX001 (ip), vehicle: saline with Tween-80 89 % of control

C=CCOCCN1CCN(CCCN2c3ccccc3Sc3ccc(C(F)(F)F)cc32)CC1
inactive: dose: 0.23 mg/kg/injection, schedule: Q01DX009 (ip), vehicle: saline 93 % of control | dose: 0.35 mg/kg/injection, schedule: Q01DX009 (ip), vehicle: saline 86 % of control | dose: 0.54 mg/kg/injection, schedule: Q01DX009 (ip), vehicle: saline 98 % of control | dose: 1.09 mg/kg/injection, schedule: Q01DX009 (ip), vehicle: saline 111 % of control | dose: 2.18 mg/kg/injection, schedule: Q01DX009 (ip), vehicle: saline 86 % of control | dose: 6.25 mg/kg/injection, schedule: Q04DX003 (ip), vehicle: saline 101 % of control | dose: 12.5 mg/kg/injection, schedule: Q04DX003 (ip), vehicle: saline 110 % of control | dose: 16.0 mg/kg/injection, schedule: Q01DX003 (ip), vehicle: saline 117 % of control | dose: 17.0 mg/kg/injection, schedule: Q04DX003 (ip), vehicle: saline 101 % of control | dose: 25.0 mg/kg/injection, schedule: Q01DX003 (ip), vehicle: saline 108 % of control | [2] 106 % of control

Cc1cc(/C=N/N2CCN(/N=C/c3cc(C)n(-c4ccccc4)c3C)CC2)c(C)n1-c1ccccc1
inactive: [3] 95 % of control | [4] 88 % of control | [5] 90 % of control

COc1ccc(/C(C#N)=C2C=C/C(=N/O)c3ccccc3\2)cc1
inactive: dose: 50.0 mg/kg/injection, schedule: Q01DX001 (ip), vehicle: carboxymethylcellulose (CMC) 92 % of control | [3] 92 % of control | [4] 87 % of control | [5] 89 % of control

CC1(Cl)C(=O)NC(=O)NC1=O
inactive: [2] 96 % of control | [6] 96 % of control

O=C(Nc1cc([N+](=O)[O-])ccc1O)Nc1cc([N+](=O)[O-])ccc1F
inactive: dose: 100.0 mg/kg/injection, schedule: Q04DX003 (ip), vehicle: Klucel (hydroxypropylcellulose) (HPC) 100 % of control | dose: 200.0 mg/kg/injection, schedule: Q04DX003 (ip), vehicle: Klucel (hydroxypropylcellulose) (HPC) 94 % of control | dose: 400.0 mg/kg/injection, schedule: Q04DX003 (ip), vehicle: Klucel (hydroxypropylcellulose) (HPC) 98 % of control

Cc1ccc(S(=O)(=O)NC(=O)Oc2c(C(C)C)cccc2C(C)C)cc1
inactive: [6] 110 % of control | [7] 110 % of control | [8] 102 % of control

CC(=O)OC1CCC2(C)C(CCC3C2CCC2(C)C3C(c3ccccc3Cl)C3C=NN(c4ccccc4)C32C(=O)c2ccccc2)C1 (stereo not drawn)
inactive: dose: 25.0 mg/kg/injection, schedule: Q04DX002 (ip), vehicle: Klucel (hydroxypropylcellulose) (HPC) 97 % of control | dose: 50.0 mg/kg/injection, schedule: Q04DX002 (ip), vehicle: Klucel (hydroxypropylcellulose) (HPC) 94 % of control | dose: 100.0 mg/kg/injection, schedule: Q04DX002 (ip), vehicle: Klucel (hydroxypropylcellulose) (HPC) 94 % of control

Brc1ncnc2nc[nH]c12
inactive: dose: 62.5 mg/kg/injection, schedule: Q01DX Z (ip), vehicle: carboxymethylcellulose (CMC) 97 % of control | dose: 75.0 mg/kg/injection, schedule: Q01DX Z (ip), vehicle: carboxymethylcellulose (CMC) 120 % of control | dose: 100.0 mg/kg/injection, schedule: Q01DX Z (ip), vehicle: methylcellulose (MC) 111 % of control | dose: 125.0 mg/kg/injection, schedule: Q01DX Z (ip), vehicle: carboxymethylcellulose (CMC) 121 % of control | dose: 200.0 mg/kg/injection, schedule: Q01DX Z (ip), vehicle: methylcellulose (MC) 120 % of control

CC[n+]1ccc(-c2ccc(S(=O)(=O)[O-])cc2)o1
inactive: [6] 108 % of control | [3] 96 % of control | [9] 105 % of control | [7] 93 % of control | [4] 96 % of control | [10] 105 % of control | [8] 105 % of control | [5] 100 % of control | dose: 400.0 mg/kg/injection, schedule: Q01DX001 (ip), vehicle: saline 105 % of control

Cc1c2c(cc3c1OCN(C1CCCCC1)C3)CN(C1CCCCC1)CO2
inactive: [9] 98 % of control | [10] 90 % of control

OCC1CC(n2cnc3c(Cl)ncnc32)C(O)C1O (stereo not drawn)
inactive: dose: 75.0 mg/kg/injection, schedule: Q01DX009 (ip), vehicle: saline with Tween-80 107 % of control | dose: 100.0 mg/kg/injection, schedule: Q01DX009 (ip), vehicle: saline with Tween-80 101 % of control | dose: 150.0 mg/kg/injection, schedule: Q01DX009 (ip), vehicle: saline with Tween-80 92 % of control

COc1ncnc2c1nnn2C1OC(CO)C(O)C1O (stereo not drawn)
inactive: dose: 25.0 mg/kg/injection, schedule: Q01DX001 (ip), vehicle: saline with Tween-80 102 % of control | [1] 104 % of control

CC1CN(C(=S)Nc2cccc3ccccc23)CC(C)O1 (stereo not drawn)
inactive: dose: 100.0 mg/kg/injection, schedule: Q01DX009 (ip), vehicle: Klucel (hydroxypropylcellulose) (HPC) 100 % of control | dose: 200.0 mg/kg/injection, schedule: Q01DX009 (ip), vehicle: Klucel (hydroxypropylcellulose) (HPC) 97 % of control | dose: 400.0 mg/kg/injection, schedule: Q01DX009 (ip), vehicle: Klucel (hydroxypropylcellulose) (HPC) 95 % of control

Cc1cc(NC(=O)NCc2ccc([N+](=O)[O-])cc2)ccc1S(=O)(=O)F
inactive: dose: 100.0 mg/kg/injection, schedule: Q04DX003 (ip), vehicle: saline with Tween-80 100 % of control | dose: 200.0 mg/kg/injection, schedule: Q04DX003 (ip), vehicle: saline with Tween-80 95 % of control | dose: 400.0 mg/kg/injection, schedule: Q04DX003 (ip), vehicle: saline with Tween-80 92 % of control

OC(C[n+]1ccsc1)c1ccccc1 (stereo not drawn)
inactive: dose: 75.0 mg/kg/injection, schedule: Q01DX001 (ip), vehicle: saline 96 % of control | dose: 150.0 mg/kg/injection, schedule: Q01DX001 (ip), vehicle: saline 100 % of control
